In patent US7223759B2, “Antibacterial 3,5-diaminopiperidine-substituted aromatic and heteroaromatic compounds” (Anadys Pharmaceuticals, Inc., priority 2003, dated 2007):
Where two headings read alike, the source gives them in different places.

System: Escherichia coli (ATCC25922) or Staphylococcus aureus (ATCC25923)
Assay: Antibacterial MIC, microdilution method in Mueller-Hinton medium
Assay type: cell-based
Settings: for MIC: Escherichia coli, 18 h, read-out: Potency (MIC)
Method in brief: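 Two-fold serial dilutions from 64 to 0.5 μg/ml, in duplicate, by broth microdilution in Mueller-Hinton medium (NCCLS M7-A5). MIC taken as the lowest concentration preventing visible growth after 18 h at 35° C.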

[1] = MIC in E. coli or S. aureus, two-fold serial dilutions 64 to 0.5 μg/ml in duplicate, 18 hours of incubation at 35° C.

Row | Compound | MIC [µg/mL] | MIC [1] [µg/mL] | further results
1 | CSc1ccc(CNc2nc(N3C[C@H](N)C[C@H](N)C3)nc(N3C[C@H](N)C[C@H](N)C3)n2)cc1 [N-(4-methylsulfanyl-benzyl)-4,6-Bis-((3R,5S)-3,5-diamino-piperidin-1-yl)-[1,3,5]triazine-2-amine] | < 64 | – | –
2 | N[C@@H]1C[C@H](N)CN(c2nc(Nc3ccc(C(=O)CC(=O)Nc4ccc5c(c4)OC(F)(F)O5)cc3)nc(N3C[C@H](N)C[C@H](N)C3)n2)C1 [N-{4-[2-(2,2-difluoro-benzo[1,3]dioxol-5-ylcarbamoyl)-acetyl]-phenyl}-4,6-Bis-((3R,5S)-3,5-diamino-piperidin-1-yl)-[1,3,5]triazine-2-amine] | < 16 | – | –
3 | N[C@@H]1C[C@H](N)CN(c2nc(Nc3ccc(NC(=O)c4cccc(O)c4O)cc3)nc(N3C[C@H](N)C[C@H](N)C3)n2)C1 [N-[4-(2,3-dihydroxy-benzoylamino)-phenyl]-4,6-Bis-((3R,5S)-3,5-diamino-piperidin-1-yl)-[1,3,5]triazine-2-amine] | < 16 | – | –
4 | CC(=O)c1ccc(Nc2nc(N3C[C@H](N)C[C@H](N)C3)nc(N3C[C@@H](O)[C@@H](O)C3)n2)cc1 [1-{4-[4-((3R,5S)-3,5-Diamino-piperidin-1-yl)-6-((3R,4S)-3,4-dihydroxy-pyrrolidin-1-yl)-[1,3,5]triazin-2-ylamino]-phenyl}-ethanone] | > 64 | – | –
5 | NC(=O)c1ccc(Nc2nc(N3C[C@H](N)C[C@H](N)C3)nc(N3C[C@@H](N)C[C@H]3CO)n2)cc1O [4-[4-((2S,4S)-4-Amino-2-hydroxymethyl-pyrrolidin-1-yl)-6-((3R,5S)-3,5-diamino-piperidin-1-yl)-[1,3,5]triazin-2-ylamino]-2-hydroxy-benzamide] | > 64 | – | –
6 | CC1=NN(c2ccc(Nc3nc(N4C[C@H](N)C[C@H](N)C4)nc(N4C[C@H](N)C[C@H](N)C4)n3)cc2)C(=O)C1CCO (stereo partly drawn) [N-{4-[4-(2-hydroxy-ethyl)-3-methyl-5-oxo-4,5-dihydro-pyrazol-1-yl]-phenyl}-4,6-Bis-((3R,5S)-3,5-diamino-piperidin-1-yl)-[1,3,5]triazine-2-amine] | – | > 64 | –
7 | Cc1cc(=O)oc2cc(Nc3nc(NCCN)nc(N4C[C@H](N)C[C@H](N)C4)n3)ccc12 [7-[4-(2-Amino-ethylamino)-6-((3R,5S)-3,5-diamino-piperidin-1-yl)-[1,3,5]triazin-2-ylamino]-4-methyl-chromen-2-one] | > 64 | – | –
8 | CCOC(=O)c1ccc(Nc2nc(N3C[C@H](N)C[C@H](N)C3)nc(N3C[C@H](N)C[C@H](N)C3)n2)cc1 [4-[4,6-Bis-((3R,5S)-3,5-diamino-piperidin-1-yl)-[1,3,5]triazin-2-ylamino]-benzoic acid ethyl ester] | – | > 64 | –
9 | COc1ccc(S(=O)(=O)Nc2ccc(Nc3nc(N4C[C@H](N)C[C@H](N)C4)nc(N4C[C@H](N)C[C@H](N)C4)n3)cc2O)cc1OC [N-[4-(3,4-dimethoxy-benzenesulfonylamino)-3-hydroxy-phenyl]-4,6-Bis-((3R,5S)-3,5-diamino-piperidin-1-yl)-[1,3,5]triazine-2-amine] | > 64 | – | –
10 | NC[C@H]1[C@@H](O)CCN1c1nc(Nc2ccc(C(=O)Oc3ccccc3)c(O)c2)nc(N2C[C@H](N)C[C@H](N)C2)n1 [4-[4-((2S,3S)-2-Aminomethyl-3-hydroxy-pyrrolidin-1-yl)-6-((3R,5S)-3,5-diamino-piperidin-1-yl)-[1,3,5]triazin-2-ylamino]-2-hydroxy-benzoic acidphenylester] | – | – | Potency (MIC) [1]: − (− means MIC>64 μg/ml in E. coli or S. aureus)
11 | N-(4-acetylamino-3,5-dichloro-phenyl)-4,6-Bis-0((3R,5S)-3,5-diamino-piperidin-1-yl)-[1,3,5]triazine-2-amine | – | – | Potency (MIC) [1]: − (− means MIC>64 μg/ml in E. coli or S. aureus)
12 | N[C@@H]1C[C@H](N)CN(c2nc(Nc3ccc(NC(=O)c4ccc(Cl)cc4)c(O)c3)nc(N3C[C@@H](N)C[C@H]3CO)n2)C1 [N-{4-[4-((2S,4S)-4-Amino-2-hydroxymethyl-pyrrolidin-1-yl)-6-((3R,5S)-3,5-diamino-piperidin-1-yl)-[1,3,5]triazin-2-ylamino]-2-hydroxy-phenyl}-4-chloro-benzamide] | < 64 | – | –
13 | NC[C@@H]1C[C@@H](O)CN1c1nc(Nc2ccc(C(=O)CC(=O)Nc3ccc4c(c3)OC(F)(F)O4)cc2)nc(N2C[C@H](N)C[C@H](N)C2)n1 [3-{4-[4-((2S,4R)-2-Aminomethyl-4-hydroxy-pyrrolidin-1-yl)-6-((3R,5S)-3,5-diamino-piperidin-1-yl)-[1,3,5]triazin-2-ylamino]-phenyl}-N-(2,2-difluoro-benzo[1,3]dioxol-5-yl)-3-oxo-propionamide] | < 16 | – | –
14 | N[C@@H]1C[C@H](N)CN(c2nc(NNc3ccc(F)cc3)nc(N3C[C@H](N)C[C@H](N)C3)n2)C1 [N-(4,6-Bis-((3R,5S)-3,5-diamino-piperidin-1-yl)-[1,3,5]triazin-2-yl)-N′-(4-Fluoro-phenyl)-hydrazine] | < 64 | – | –
15 | Cc1c(Cl)cccc1CNc1nc(N2C[C@H](N)C[C@H](N)C2)nc(N2C[C@H](N)C[C@H](N)C2)n1 [N-(3-chloro-2-methyl-benzyl)-4,6-Bis-((3R,5S)-3,5-diamino-piperidin-1-yl)-[1,3,5]triazine-2-amine] | > 64 | – | –
16 | CSc1cccc(Nc2nc(N3C[C@H](N)C[C@H](N)C3)nc(N3C[C@H](N)C[C@H](N)C3)n2)c1.Cl [N-(3-methyylsulfanyl-phenyl)-4,6-Bis-((3R,5S)-3,5-diamino-piperidin-1-yl)-[1,3,5]triazine-2-amine] | – | < 64 | –
17 | Cc1ccc(S(=O)(=O)N(Cc2ccccc2)c2ccc(Nc3nc(NC4CCNCC4)nc(N4C[C@H](N)C[C@H](N)C4)n3)cc2O)cc1 [N-Benzyl-N-{4-[4-((3R,5S)-3,5-diamino-piperidin-1-yl)-6-(piperidin-4-ylamino)-[1,3,5]triazin-2-ylamino]-2-hydroxy-phenyl}-4-methyl-benzenesulfonamide] | – | < 64 | –
18 | CCCCC(=O)Nc1ccc(S(=O)(=O)Nc2ccc(Nc3nc(N4C[C@H](N)C[C@H](N)C4)nc(N4C[C@H](N)C[C@H](N)C4)n3)cc2O)cc1 [N-[3-hydroxy-4-(4-pentanoylamino-benzenesulfonylamino)-phenyl]-4,6-Bis-((3R,5S)-3,5-diamino-piperidin-1-yl)-[1,3,5]triazine-2-amine] | < 64 | – | –
19 | N[C@@H]1C[C@H](N)CN(c2nc(Nc3ccc(NC(=O)C=Cc4ccccc4)c(O)c3)nc(N3C[C@H](N)C[C@H](N)C3)n2)C1 [N-[3-hydroxy-4-(3-phenyl-acryloylamino)-phenyl]-4,6-Bis-((3R,5S)-3,5-diamino-piperidin-1-yl)-[1,3,5]triazine-2-amine] | < 16 | – | –
20 | Cl.O=C(Nc1ccc(Cl)cc1Cl)c1ccc(Nc2nc(N3CCCCC3)nc(N3CCCCC3)n2)cc1O [N-[4-(2,4-dichloro-phenylcarbamoyl)-3-hydroxy-phhenyl]-4,6-Bis-((3R,5S)-3,5-diamino-piperidin-1-yl)-[1,3,5]triazine-2-amine] | – | < 16 | –
21 | CCn1c(-c2cccc(Nc3nc(N4C[C@H](N)C[C@H](N)C4)nc(N4C[C@H](N)C[C@H](N)C4)n3)c2)cc(=O)n1-c1ccccc1 [N-[3-(2-ethyl-5-oxo-1-phenyl-2,5-dihydro-1H-pyrazol-3-yl)-phenyl]-4,6-Bis-((3R,5S)-3,5-diamino-piperidin-1-yl)-[1,3,5]triazine-2-amine] | > 64 | – | –
22 | Cc1ccc(S(=O)(=O)N(C)C)cc1Nc1nc(N2C[C@H](N)C[C@H](N)C2)nc(N2C[C@H](N)C[C@H](N)C2)n1 [N-(5-dimethylsulfamoyl-2-methyl-phenyl)-4,6-Bis-((3R,5S)-3,5-diamino-piperidin-1-yl)-[1,3,5]triazine-2-amine] | – | > 64 | –
23 | Cc1ccc(C(=O)Nc2ccc(Nc3nc(N4C[C@H](N)C[C@H](N)C4)nc(N4C[C@H](N)C[C@H](N)C4)n3)c(C)c2)c(O)c1 [N-[4-(2-hydroxy-4-methyl-benzoylamino)-2-methyl-phenyl]-4,6-Bis-((3R,5S)-3,5-diamino-piperidin-1-yl)-[1,3,5]triazine-2-amine] | < 64 | – | –
24 | N[C@@H]1C[C@H](N)CN(c2nc(Nc3ccc(NC(=O)C(F)(F)F)cc3)nc(N3C[C@H](N)C[C@H](N)C3)n2)C1 [N-[4-(2,2,2-trifluoro-acetylamino)-phenyl]-4,6-Bis-((3R,5S)-3,5-diamino-piperidin-1-yl)-[1,3,5]triazine-2-amine] | – | > 64 | –
25 | Cl.N[C@@H]1C[C@H](N)CN(c2nc(NNc3cc(Cl)ccc3Cl)nc(N3C[C@H](N)C[C@H](N)C3)n2)C1 [N-(4,6-Bis-((3R,5S)-3,5-diamino-piperidin-1-yl)-[1,3,5]triazin-2-yl)-N′-(2,5-Dichloro-phenyl)-hydrazine] | – | < 64 | –
26 | N[C@@H]1C[C@H](N)CN(c2nc(Nc3cccc(NC(=O)c4cc5cccc(O)c5cc4O)c3)nc(N3C[C@H](N)C[C@H](N)C3)n2)C1 [N-{3-[(3,5-dihydroxy-naphthalene-2-carbonyl)-amino]-phenyl}-4,6-Bis-((3R,5S)-3,5-diamino-piperidin-1-yl)-[1,3,5]triazine-2-amine] | – | < 64 | –
27 | CC(C)CCCCCC(=O)Nc1ccc(Nc2nc(N3C[C@H](N)C[C@H](N)C3)nc(N3C[C@H](N)C[C@H](N)C3)n2)cc1O [N-[3-hydroxy-4-(7-methyl-octanoylamino)-phenyl]-4,6-Bis-((3R,5S)-3,5-diamino-piperidin-1-yl)-[1,3,5]triazine-2-amine] | < 16 | – | –
28 | NC[C@@H]1C[C@H](N)CN1c1nc(Nc2ccc(NC(=O)c3ccc(O)cc3O)c(O)c2)nc(N2C[C@H](N)C[C@H](N)C2)n1 [N-{4-[4-((2S,4S)-4-Amino-2-aminomethyl-pyrrolidin-1-yl)-6-((3R,5S)-3,5-diamino-piperidin-1-yl)-[1,3,5]triazin-2-ylamino]-2-hydroxy-phenyl}-2,4-dihydroxy-benzamide] | < 16 | – | –
